Laboratory results taken from patent US4663334A, “Heteroaromatic acetylenes useful as antihypertensive agents” (McNeilab, Inc., priority 1985, dated 1987).
Where a name gives a salt, the structure may show the parent alone.

Tested on: spontaneously hypertensive rats
Assay: Spontaneously Hypertensive Rat (SHR) test
Assay type: in vivo
Conditions: oral dose 30 mg/kg
Text: The activity of compounds of formula (I) for the treatment of hypertension may be determined using the Spontaneously Hypertensive Rat (SHR) test as described below.
In this test, the arterial pressure of adult spontaneously hypertensive rats (Charles River) is monitored directly via an aortic cannula. The SH rats are anesthetized with an inhalation anesthetic (ether). The left carotid artery is isolated and cannulated. The tip of the cannula is advanced to the aorta and the cannula is exteriorized behind the neck at the level of the scapula. Animals are placed in individual cages and allowed to recover from the anesthetic and are kept unrestrained. The arterial cannula is connected to the pressure transducer which is attached to the recorder. The test compounds are administered to at least 3 rats at doses selected in the range of 0.1 to 100 mg/kg of body weight by intraperitoneal (i.p.) or oral (p.o.) routes of administration. The arterial pressure and heart rate are monitored for a minimum of 24 hours. A test compound is considered to be active as an antihypertensive agent if the mean arterial pressure (MAP) indicates a fall of >15 mm of Hg. Each animal serves as its own control.

Row | Compound | duration of blood pressure reduction [h] | heart rate change [beats/min] | reduction of hypertensive blood pressure (mean arterial pressure) [mm Hg]
1 | CC(C)(C)NCC(O)COc1ccccc1C#Cc1ccncc1.O=C(O)/C=C/C(=O)O (stereo not drawn) [Example 1, 1-[(1,1-Dimethylethyl)amino]-3-[2-(4-pyridinylethynyl)phenoxy]-2-propanol (E)-2-Butenedioate] | 7.5 | -87 | -46
2 | CC(C)(C)NCC(O)COc1ccccc1C#Cc1cccnc1 (stereo not drawn) [Example 2, 1-[(1,1-Dimethylethyl)amino]-3-[2-(3-pyridinylethynyl)phenoxy]-2-propanol Hydrochloride Hydrate (4:4:1)] | 10.5 | -41 | -54
